Assay results reported in paper PMC6255212, “Coupled molecular dynamics mediate long- and short-range epistasis between mutations that affect stability and aggregation kinetics” (Proceedings of the National Academy of Sciences of the …, 2018).

Biological target: T1, Escherichia coli transketolase (TK) (Escherichia coli, UniProt P27302)
T1 construct: gene tktA; homodimer of 70- to 74-kDa monomers; holo enzyme with ThDP and Mg2+
Test: steady-state enzyme kinetics
Type: biochemical
Settings: 50 mM Li-HPA (lithium beta-hydroxypyruvate, saturating), 4-80 mM glycolaldehyde

T1 sequence (P27302 2-663): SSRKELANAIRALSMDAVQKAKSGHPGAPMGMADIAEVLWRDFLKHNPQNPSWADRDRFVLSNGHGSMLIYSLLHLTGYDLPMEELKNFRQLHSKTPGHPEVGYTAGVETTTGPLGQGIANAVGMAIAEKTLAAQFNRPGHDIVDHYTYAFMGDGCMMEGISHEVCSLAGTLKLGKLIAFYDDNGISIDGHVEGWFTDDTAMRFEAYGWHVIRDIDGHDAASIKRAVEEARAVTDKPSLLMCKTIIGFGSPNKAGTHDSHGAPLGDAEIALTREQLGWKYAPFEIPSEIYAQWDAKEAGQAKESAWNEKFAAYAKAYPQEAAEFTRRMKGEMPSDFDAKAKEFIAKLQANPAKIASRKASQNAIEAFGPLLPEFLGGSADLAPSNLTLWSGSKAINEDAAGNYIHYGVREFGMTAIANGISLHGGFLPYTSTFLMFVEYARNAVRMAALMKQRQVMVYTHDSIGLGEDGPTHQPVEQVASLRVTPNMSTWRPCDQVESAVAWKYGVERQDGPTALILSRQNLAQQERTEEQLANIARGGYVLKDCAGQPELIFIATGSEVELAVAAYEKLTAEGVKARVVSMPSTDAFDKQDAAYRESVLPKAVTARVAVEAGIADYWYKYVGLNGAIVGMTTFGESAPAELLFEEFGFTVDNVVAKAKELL

Work on `O=CCO` [glycolaldehyde] yielded a Km of 20.3 mM.
